According to US5840698A, “Inhibitors of collagenase-1 and stormelysin-I metalloproteases, pharmaceutical compositions comprising same and methods of their use” (Affymax Technologies N.V., priority 1995, dated 1998):

Biological target: T1, carboxyl terminal truncated form of human stromelysin-I (Homo sapiens, UniProt P08254)
T1 construct: a carboxyl terminal truncated form of human stromelysin-I
Experiment: in vitro inhibition of truncated human stromelysin-I, fluorogenic Mca-peptide assay
Format: biochemical
Settings: mercaptoalcohol compared with corresponding mercaptoketone
Method: For example, assays of in vitro inhibition activity against a carboxyl terminal truncated form of human stromelysin-I were conducted as follows. The buffer was prepared from 50 mM of N-[2-hydroxyethyl]piperazine-N'-[2-ethanesulfonic acid] (HEPES) (pH 7.0) containing 5 mM calcium, 0.02% of 23 lauryl ether (Brij) and 0.5 mM cysteine and was degassed by vacuum for more than 30 minutes. The methanol (MeOH), which is used for dilution of the inhibitor to the desired concentration, was degassed by bubbling argon for more than 30 minutes. For dilution, a sufficient amount of MeOH was then added to the compounds of the present invention to obtain a 10 mmol solution. For the assay, 20 μL of the MeOH/inhibitor solution was added to 460 μL of buffer, to which 20 μL of 100 nM of stromelysin was then added. The resulting solution was left for three minutes, after which time 5 μL of 100 μM of (7-methoxycoumarin-4-yl)acetyl-Pro-Leu-Gly-Leu-[3-(2',4'-dinitrophenyl)-L- 2,3-diaminopropionyl]-Ala-Arg-NH2 (Mca-peptide)(in dimethyl sulfoxide (DMSO)) was added. The fluorescence intensity increase was measured using a fluoremeter, with excitation wavelength centered around 328 nm (slit of 5 nm) and emission wavelength centered around 393 nm (slit of […]). The slope at each inhibitor concentration was then measured. The slope versus inhibition concentration was next fit into the IC50 equation of […]

T1 sequence (P08254 100-272 limits assumed): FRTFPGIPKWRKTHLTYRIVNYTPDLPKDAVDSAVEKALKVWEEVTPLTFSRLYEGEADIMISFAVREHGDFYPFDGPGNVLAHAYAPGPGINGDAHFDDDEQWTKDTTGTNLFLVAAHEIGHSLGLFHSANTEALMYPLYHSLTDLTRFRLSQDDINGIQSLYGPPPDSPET

potency against stromelysin relative to the corresponding compound (FIG. 11): more than twice as potent
Compound: CC(C)C[C@H](CC1CSC(c2ccccc2)(c2ccccc2)O1)C(=O)N1C(=O)OC[C@@H]1Cc1ccccc1 (stereo partly shown) [FIG. 11 (3)]
